The values below come from paper PMC11322497 (Frontiers in Pharmacology, 2024).

Data set [1] can be described thus: In vitro plasma protein binding in rabbit blood (rapid equilibrium dialysis, LC-MS/MS). Type of data set: in vitro ADME. The conditions noted are these: nominal 0.2, 2 and 20 μg/mL, read-out: unbound free fraction.
For data set [2], the system named is high fat diet (HFD) rabbit model of metabolic-associated steatohepatitis (MASH). Briefly: HFD rabbit study, prolonged 4-week treatment: protein expression in liver homogenates. The data set is classed as in vivo, New Zealand White rabbits. The conditions noted are these: HFD rabbits, weeks 9–12, mean±SD, n=3. The procedure:
After 1 week (W) of RD, the animals (n = 44) were randomly assigned to the following groups (Table 1B): • Control rabbits continued to receive a RD for 12 weeks and were treated with vehicle for 5 days a week (days 1–5, p.o.) during the last 4 weeks before culling (RD + 4W Veh group); • Rabbits received a HFD for 8 weeks and were culled (HFD 8W group); • Rabbits received a HFD for 12 weeks and were treated with vehicle for 5 days a week (days 1–5, p.o.) during the last 4 weeks before culling (HFD+4W Veh group); • Rabbits received a HFD for 12 weeks and were treated with GB1211 (0.3 mg/kg) for 5 days a week (days 1–5, p.o.) during the last 4 weeks before culling (HFD + 4W 0.3 mg group); • Rabbits received a HFD for 12 weeks and were treated with GB1211 (1.0 mg/kg) for 5 days a week (days 1–5, p.o.) during the last 4 weeks before culling (HFD + 4W 1.0 mg group); • Rabbits received a HFD for 12 weeks and were treated with GB1211 (5.0 mg/kg) for 5 days a week (days 1–5, p.o.) during the last 4 weeks before culling (HFD + 4W 5.0 mg group).
Quantitative analyses of collagen, IL6 and TNFα expression in liver biopsies were carried out using available commercial assays. Collagen content was evaluated in liver homogenates employing the Sircol S2000 assay (Biocolor, Carrickfergus, United Kingdom), in accordance with manufacturer’s protocols. Briefly, 30 mg liver biopsies were fragmented in the appropriate reagent and the supernatant was bound to a dye reagent containing Sirius Red, which would generate a colorimetric reaction quantified as absorbance using an internal collagen standard curve. IL6 and TNFα were quantified in liver homogenates using ELISA assay kits (both from Cloud-Clone Corp, Katy, TX). Briefly, 50 mg liver biopsies were homogenized in proprietary lysis buffer and the supernatants were analyzed by sandwich immunoassays, following the producer’s instructions.

Data set [3] addresses mouse galectin-3. Details: method as in Zetterberg et al., 2022. The conditions noted are these: ref Zetterberg et al., 2022; read-out: binding affinity for mouse galectin-3; cited from earlier work.
The target in data set [4] is T1, rabbit galectin-3 (Oryctolagus cuniculus, UniProt P47845).
T1 construct: made in house
T1 sequence (P47845 whole entry): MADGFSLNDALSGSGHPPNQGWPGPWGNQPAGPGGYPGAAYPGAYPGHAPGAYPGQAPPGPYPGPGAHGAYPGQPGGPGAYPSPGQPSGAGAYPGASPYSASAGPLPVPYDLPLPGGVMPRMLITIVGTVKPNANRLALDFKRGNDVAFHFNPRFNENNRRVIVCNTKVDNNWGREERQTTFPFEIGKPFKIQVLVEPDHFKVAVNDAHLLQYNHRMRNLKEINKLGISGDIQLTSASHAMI
Briefly: Galectins fluorescence polarization binding assay. The procedure:
Briefly, FP was measured from above in 96-well microtiter plates (black polystyrene; Costar, Corning, NY) using a POLARStar® instrument (BMG Labtech, Ortenberg, Germany). The final sample volume in each well was 200 μL. For inhibition assays, 100 μL of galectin and probe at fixed concentration was mixed with 100 μL of inhibitor solution and FP was measured as described above. Control wells containing only fluorescent probe or fluorescein were included.
All dilutions and measurements were done in PBS with plates incubated at room temperature for 1 h.
Background: Polarisation of emitted light reports the rotation of a fluorescent probe.

The structures appear in SMILES notation. Like-named read-outs stand apart in the source and are kept apart here.

As usually defined, the fraction unbound is the share of the substance not bound to proteins or other matrix. Take `OC[C@H]1O[C@H](Sc2cncc(Br)c2)[C@H](O)[C@@H](n2cc(-c3cc(F)c(F)c(F)c3)nn2)[C@H]1O` [selvigaltin]: the fraction unbound in data set [1] amounted to 0.141. Moreover, the “Collagen protein in liver homogenate” value worked out at 57.63 ± 2.73 µg/mg Liver in data set [2] (0.3 mg/kg p.o.), 45.25 ± 3.42 µg/mg Liver in data set [2] (1.0 mg/kg p.o.) and 50.86 ± 5.22 µg/mg Liver in data set [2] (5.0 mg/kg p.o.). Moreover, the “IL6 protein in liver homogenate” value was 76.12 ± 8.47 pg/g Liver in data set [2] (0.3 mg/kg p.o.), 63.53 ± 20.39 pg/g Liver in data set [2] (1.0 mg/kg p.o.) and 64.27 ± 18.36 pg/g Liver in data set [2] (5.0 mg/kg p.o.). Besides, the “TNFα protein in liver homogenate” value is on record as 1.61 ± 0.54 pg/mg Liver in data set [2] (0.3 mg/kg p.o.), 1.24 ± 0.58 pg/mg Liver in data set [2] (1.0 mg/kg p.o.) and 1.33 ± 0.68 pg/mg Liver in data set [2] (5.0 mg/kg p.o.). Further, the Kd in data set [3] is 770 nM; in data set [4] (equivalent to KD of 12 nM, read-out: rabbit galectin-3 KD, equivalent concentration (converted)), 12 nM; in data set [4] (fluorescence polarization, mean ± SD, n = 3, read-out: KD rabbit galectin-3), 12 nM.
